Measurements: US10106529B2, “Compounds that modulate intracellular calcium” (CalciMedica, Inc., priority 2011, dated 2018)

Each molecule was assayed on RBL-2H3 cells (assay: Fluorescence-based assay of store-operated calcium entry in RBL-2H3 cells). Settings: Rattus norvegicus, thapsigargin, inhibition of Upslope of fluorescence after calcium addition, read-out: RBL-2H3 (IC50, μmol).
Format: cell-based, rat
Procedure: (§1) Fluorescence-based assays are used for screening the compounds described herein, such as compounds of Formulas (I), (IA), (II), (IIA), (III), (IIIA), (IV), (IVA), (V), (VA), (VI), (VIA), (VII), (VIIA), (VIII), (VIIIA), (IX), (IXA), (X), (XI), (XIA), (XII), or (XIIA) which modulate intracellular calcium.
B. Fluorescence-Based Assay of Store-Operated Calcium Entry in RBL-2H3 Cells.
RBL-2H3 cells are obtained from ATCC and maintained in complete medium with 10% FBS at 37° C./6% CO2.
The day prior to performing the assay, RBL-2H3 cells are plated in 50 μL of complete medium in a 384 well plate. Cells are grown at 37° C./6% CO2 overnight and grow to 50-60% confluence by the next day. On the assay day, 1.5 µM Fluo-4-AM dye (Invitrogen) in complete medium is added and incubated for 1 hour at RT. Cells are washed twice in Ca^2+-free HBSS buffer and 35 μL Ca^2+-free HBSS buffer is added to each well. 10 μL of a test compound prepared in a Ca^2+-free HBSS solution at 4.5× of the desired concentration is added to a well and incubated for 5 minutes at RT. 10 μL of thapsigargin prepared in a Ca^2+-free HBSS solution at 5.5× of the desired concentration (5.5 uM) is added to each well and incubated for an additional 25 minutes. The initial baseline fluorescence signal is measured with a FLIPR^384 (Molecular Devices) plate reader. 5 μL of 12× calcium in HBSS (12 mM) is added and changes in cellular fluorescence are measured with the FLIPR^384 plate reader. In each well, the change in the fluorescent signal as a function of time due to calcium entry into the cell is determined by calculating the difference between the fluorescent signal measured 7 seconds after calcium addition and the initial baseline fluorescence signal at time zero (t=0). This parameter is designated Upslope. The IC50 value is calculated as the concentration at which 50% of the Upslope is inhibited.

IC50, < 600 nM:
Fc1cc(F)c(CNc2ccc(Oc3ccccc3C(F)(F)F)cn2)c(F)c1 [Compound 134]
Fc1cccc(F)c1CNc1ccc(Oc2ccccc2C(F)(F)F)cn1 [Compound 135]
Cn1nc(C(F)(F)F)cc1-c1ccc(NCc2ccccc2F)nc1N [Compound 143, N^2-(2-fluorobenzyl)-5-(1-methyl-3-(trifluoromethyl)-1H-pyrazol-5-yl)pyridine-2,6-diamine]

Each molecule was assayed against T1, Orai1/STIM1 (Homo sapiens, UniProt Q96D31) (assay: Fluorescence-based assay of store-operated calcium entry in Orai1/STIM1 stable cells). Settings: HEK-293 cells stably expressing human STIM1 and Orai1; inhibition of Peak-Basal fluorescence signal after calcium addition; read-out: Orai1/STIM1 (IC50, μmol).
T1 construct: c-myc (C); expressed in transfected cells; host or cells: HEK-293 cells stably expressing recombinant human STIM1 and Orai1
Format: cell-based
Excerpt: as §1
A. Fluorescence-Based Assay of Store-Operated Calcium Entry in Orai1/STIM1 Stable Cells.
Cells stably expressing recombinant human STIM1 and Orai1 are generated by transfecting a human Orai1 expression plasmid (pcDNA3.1-Orai1-cmyc) into HEK-293 cells stably overexpressing human STIM1 (Roos et al. 2005 JCB 169(3): 435-445). Colonies of cells stably expressing both STIM1 and Orai1 proteins are selected and then subcloned by limiting dilution. Cells were cultured at 37° C./6% CO2 in complete medium with 10% FBS and appropriate selection markers.
The day prior to performing the assay Orai1/STIM1 stable cells are plated in 50 μL of complete medium at 90-95% confluence in a 384 well plate. Cells are grown at 37° C./6% CO2 overnight. On the day of the assay, 1.5 μM fluo-4-AM (Invitrogen) in complete medium is added to the cells, which are then incubated for 1 hour at RT. Cells are washed once in Ca^2+-free HBSS (Hank's buffered saline solution) and 35 μl of Ca^2+-free HBSS is added to each well. Test compounds are added to wells in a 10 μL Ca^2+-free HBSS solution, prepared at 4.5× the desired final concentration, and incubated for 30 minutes at RT. The initial baseline fluorescence signal is then measured with a FLIPR^384 (Molecular Devices) plate reader. Calcium entry is initiated by adding 5 μl of 10×CaCl2 (10 mM) in HBSS, and changes in cellular fluorescence are measured with the FLIPR^384 plate reader. In each well, the magnitude of the fluorescence signal as a result of calcium entry into the cell is determined by calculating the difference between the peak fluorescence signal measured after calcium addition and the initial baseline fluorescence signal (designated Peak-Basal). IC50 values are typically calculated as the concentration that inhibited 50% of the Peak-Basal signal.

T1 sequence (Q96D31 whole entry): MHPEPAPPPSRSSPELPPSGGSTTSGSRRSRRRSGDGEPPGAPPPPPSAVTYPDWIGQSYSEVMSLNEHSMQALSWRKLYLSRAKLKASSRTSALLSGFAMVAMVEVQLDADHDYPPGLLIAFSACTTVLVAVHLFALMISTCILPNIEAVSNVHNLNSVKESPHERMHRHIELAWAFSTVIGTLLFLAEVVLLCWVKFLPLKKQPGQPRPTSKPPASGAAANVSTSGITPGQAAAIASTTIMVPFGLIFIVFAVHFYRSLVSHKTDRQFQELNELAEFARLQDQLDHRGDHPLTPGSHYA

IC50, < 600 nM:
Fc1cc(F)c(CNc2ccc(Oc3ccccc3C(F)(F)F)cn2)c(F)c1 [Compound 134]
Fc1cccc(F)c1CNc1ccc(Oc2ccccc2C(F)(F)F)cn1 [Compound 135]
Cn1nc(C(F)(F)F)cc1-c1ccc(NCc2ccccc2F)nc1N [Compound 143, N^2-(2-fluorobenzyl)-5-(1-methyl-3-(trifluoromethyl)-1H-pyrazol-5-yl)pyridine-2,6-diamine]
